Results: US11426412B2, “Imidazo-pyridine compounds as PAD inhibitors” (JUBILANT EPIPAD LLC, priority 2017, dated 2022)
Counter-ions that a name gives are not always drawn. Like-named read-outs stand apart in the source and are kept apart here.

Target: PAD4 (Homo sapiens (Human), UniProt Q9UM07)
Test: Ammonia release biochemical assay (citrullination)
[1] = read-out: NH3 release biochemical assay PAD4 IC50
[2] = Table 1, class A, read-out: IC50 value, ammonia release biochemical assay

PAD4, sequence (Q9UM07 whole entry): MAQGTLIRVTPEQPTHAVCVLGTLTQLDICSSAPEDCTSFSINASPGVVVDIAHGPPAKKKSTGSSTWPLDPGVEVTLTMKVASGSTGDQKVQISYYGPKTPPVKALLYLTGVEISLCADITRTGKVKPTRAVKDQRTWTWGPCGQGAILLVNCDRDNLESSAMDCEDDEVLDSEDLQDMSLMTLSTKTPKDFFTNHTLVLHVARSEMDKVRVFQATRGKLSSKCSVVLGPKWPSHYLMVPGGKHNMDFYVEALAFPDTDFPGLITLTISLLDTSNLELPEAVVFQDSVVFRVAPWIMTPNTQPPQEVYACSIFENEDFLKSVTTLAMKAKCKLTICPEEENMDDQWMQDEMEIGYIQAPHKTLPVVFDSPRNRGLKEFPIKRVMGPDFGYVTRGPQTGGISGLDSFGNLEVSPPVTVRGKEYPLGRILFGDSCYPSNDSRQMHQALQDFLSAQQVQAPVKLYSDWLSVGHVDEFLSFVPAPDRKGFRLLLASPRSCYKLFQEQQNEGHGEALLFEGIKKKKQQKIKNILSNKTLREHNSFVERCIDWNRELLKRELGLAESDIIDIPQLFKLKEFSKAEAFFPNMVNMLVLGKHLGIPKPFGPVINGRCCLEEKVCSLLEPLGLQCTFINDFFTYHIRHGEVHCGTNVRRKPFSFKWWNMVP

Row | Structure (SMILES) | IC50 [1] [nM] | IC50 [2] [nM]
1 | Cc1c(-c2c(Br)c3ccccc3n2CC2CC2)nc2cc(C(=O)N3CCC[C@@H](N)C3)ccn12 [Compound 1, (R)-(3-Aminopiperidin-1-yl)(2-(3-bromo-1-(cyclopropylmethyl)-1H-indol-2-yl)-3-methylimidazo[1,2-a]pyridin-7-yl)methanone] | > 10000 | 
2 | CCn1c(-c2nc3cc(C(=O)N4CCC[C@@H](N)C4)ccn3c2C)c(-c2ccccc2)c2ccccc21 [Compound 5, (R)-(3-Aminopiperidin-1-yl)(2-(1-ethyl-3-phenyl-1H-indol-2-yl)-3-methylimidazo[1,2-a]pyridin-7-yl)methanone] | > 10000 | 
3 | CCn1c(-c2nc3cc(C(=O)N4CC[C@@H](N)C4)ccn3c2C)c(-c2ccccc2)c2ccccc21 [Compound 6, (R)-(3-Aminopyrrolidin-1-yl)(2-(1-ethyl-3-phenyl-1H-indol-2-yl)-3-methylimidazo[1,2-a]pyridin-7-yl)methanone] | > 10000 | 
4 | CCn1c(-c2nc3cc(C(=O)N4CC[C@@H](N)C4)ccn3c2C)cc2ccccc21 [Compound 7, (R)-(3-Aminopyrrolidin-1-yl)(2-(1-ethyl-1H-indol-2-yl)-3-methylimidazo[1,2-a]pyridin-7-yl)methanone] | > 10000 | 
5 | Cc1c(-c2cc3ccccc3n2CC2CC2)nc2cc(C(=O)N3CC[C@@H](N)C3)ccn12 [Compound 8, (R)-(3-Aminopyrrolidin-1-yl)(2-(1-(cyclopropylmethyl)-1H-indol-2-yl)-3-methylimidazo[1,2-a]pyridin-7-yl)methanone] | > 10000 | 
6 | Cc1c(-c2cc3ccccc3n2C)nc2cc(C(=O)N3CCC[C@@H](N)C3)ccn12 [Compound 46, (R)-(3-aminopiperidin-1-yl)(3-methyl-2-(1-methyl-1H-indol-2-yl)imidazo[1,2-a]pyridin-7-yl)methanone] | > 10000 | 
7 | Cc1c(-c2cc3ccc(F)cc3n2Cc2ccc(F)cc2)nc2cc(C(=O)N3CCC[C@@H](N)C3)ccn12 [Compound 54, (R)-(3-aminopiperidin-1-yl)(2-(6-fluoro-1-(4-fluorobenzyl)-1H-indol-2-yl)-3-methylimidazo[1,2-a]pyridin-7-yl)methanone] | < 1000 | 
8 | COc1cccc(Cn2c(-c3nc4cc(C(=O)N5CCC[C@@H](N)C5)ccn4c3C)cc3cc(F)c(F)cc32)c1 [Compound 55, (R)-(3-aminopiperidin-1-yl)(2-(5,6-difluoro-1-(3-methoxybenzyl)-1H-indol-2-yl)-3-methylimidazo[1,2-a]pyridin-7-yl)methanone] | < 1000 | 
9 | Cc1c(-c2cc3ccccc3n2Cc2cncnc2)nc2cc(C(=O)N3CCC[C@@H](N)C3)ccn12 [Compound 58, (R)-(3-aminopiperidin-1-yl) (3-methyl-2-(1-(pyrimidin-5-ylmethyl)-1H-indol-2-yl)imidazo[1,2-a]pyridin-7-yl)methanone Trifluoroacetic Acid Salt] | < 1000 | ≤ 1000
10 | Cc1c(-c2cc3ccccc3n2CC(C)C)nc2cc(C(=O)N3CCC[C@@H](N)C3)ccn12 [Compound 60, (R)-(3-aminopiperidin-1-yl)(2-(1-isobutyl-1H-indol-2-yl)-3-methylimidazo[1,2-a]pyridin-7-yl)methanone] | < 1000 | 
11 | Cc1c(-c2cc3ccccc3n2CC2CCC2)nc2cc(C(=O)N3CCC[C@@H](N)C3)ccn12 [Compound 61, (R)-(3-aminopiperidin-1-yl)(2-(1-(cyclobutylmethyl)-1H-indol-2-yl)-3-methylimidazo[1,2-a]pyridin-7-yl)methanone] | < 1000 | 
12 | Cc1c(-c2cc3ccccc3n2Cc2ncccc2F)nc2cc(C(=O)N3CCC[C@@H](N)C3)ccn12 [Compound 62, (R)-(3-aminopiperidin-1-yl)(2-(1-((3-fluoropyridin-2-yl)methyl)-1H-indol-2-yl)-3-methylimidazo[1,2-a]pyridin-7-yl)methanone] | < 1000 | 
13 | COc1ccc(Cn2c(-c3nc4cc(C(=O)N5CCC[C@@H](N)C5)ccn4c3C)cc3ccccc32)nc1 [Compound 63, (R)-(3-aminopiperidin-1-yl)(2-(1-((5-methoxypyridin-2-yl)methyl)-1H-indol-2-yl)-3-methylimidazo[1,2-a]pyridin-7-yl)methanone] | < 1000 | 
14 | COCCn1c(-c2nc3cc(C(=O)N4CCC[C@@H](N)C4)ccn3c2C)cc2ccccc21 [Compound 64, (R)-(3-aminopiperidin-1-yl) (2-(1-(2-methoxyethyl)-1H-indol-2-yl)-3-methylimidazo[1,2-a]pyridin-7-yl)methanone] | < 1000 | 
15 | COc1ccc2cc(-c3nc4cc(C(=O)N5CCC[C@@H](N)C5)ccn4c3C)n(Cc3ccncc3)c2c1 [Compound 66, (R)-(3-aminopiperidin-1-yl)(2-(6-methoxy-1-(pyridin-4-ylmethyl)-1H-indol-2-yl)-3-methylimidazo[1,2-a]pyridin-7-yl)methanone] | > 10000 | 
16 | CCn1c(-c2nc3cc(C(=O)N4CCC[C@@H](N)C4)ccn3c2C)cc2ccc(OC)cc21 [Compound 67, (R)-(3-aminopiperidin-1-yl)(2-(1-ethyl-6-methoxy-1H-indol-2-yl)-3-methylimidazo[1,2-a]pyridin-7-yl)methanone] | < 1000 | 
17 | Cc1c(-c2cc3ccc(F)cc3n2Cc2ccncc2)nc2cc(C(=O)N3CCC[C@@H](N)C3)ccn12 [Compound 68, (R)-(3-aminopiperidin-1-yl)(2-(6-fluoro-1-(pyridin-4-ylmethyl)-1H-indol-2-yl)-3-methylimidazo[1,2-a]pyridin-7-yl)methanone] | < 1000 | 
18 | Cc1c(-c2cc3ccc(F)cc3n2Cc2cccnc2)nc2cc(C(=O)N3CCC[C@@H](N)C3)ccn12 [Compound 69, (R)-(3-aminopiperidin-1-yl)(2-(6-fluoro-1-(pyridin-3-ylmethyl)-1H-indol-2-yl)-3-methylimidazo[1,2-a]pyridin-7-yl)methanone] | < 1000 | 
19 | COc1cccc(Cn2c(-c3nc4cc(C(=O)N5CCC[C@@H](N)C5)ccn4c3C)cc3ccc(F)cc32)c1 [Compound 70, (R)-(3-aminopiperidin-1-yl)(2-(6-fluoro-1-(3-methoxybenzyl)-1H-indol-2-yl)-3-methylimidazo[1,2-a]pyridin-7-yl)methanone] | < 1000 | 
20 | COc1ccc(Cn2c(-c3nc4cc(C(=O)N5CCC[C@@H](N)C5)ccn4c3C)cc3ccc(F)cc32)cc1 [Compound 71, (R)-(3-aminopiperidin-1-yl)(2-(6-fluoro-1-(4-methoxybenzyl)-1H-indol-2-yl)-3-methylimidazo[1,2-a]pyridin-7-yl)methanone] | < 1000 | 
21 | CCn1c(-c2nc3cc(C(=O)N4CCC[C@@H](N)C4)ccn3c2C)cc2ccc(F)cc21 [Compound 72, (R)-(3-aminopiperidin-1-yl)(2-(1-ethyl-6-fluoro-1H-indol-2-yl)-3-methylimidazo[1,2-a]pyridin-7-yl)methanone] | < 1000 | 

More lines, now with the values ahead:

Row | IC50 [1] [nM] | IC50 [2] [nM] | Structure (SMILES)
22 | < 1000 | ≤ 1000 | CCn1c(-c2nc3cc(C(=O)N4CCC[C@@H](N)C4)ccn3c2C)cc2ccccc21 [Compound 4, (R)-(3-Aminopiperidin-1-yl)(2-(1-ethyl-1H-indol-2-yl)-3-methylimidazo[1,2-a]pyridin-7-yl)methanone]
23 | < 1000 |  | Cc1c(-c2cc3ccccc3n2Cc2cccc(F)c2)nc2cc(C(=O)N3CCC[C@@H](N)C3)ccn12 [Compound 35, (R)-(3-aminopiperidin-1-yl)(2-(1-(3-fluorobenzyl)-1H-indol-2-yl)-3-methylimidazo[1,2-a]pyridin-7-yl)methanone]
24 | < 1000 |  | Cc1c(-c2cc3ccccc3n2Cc2ccoc2)nc2cc(C(=O)N3CCC[C@@H](N)C3)ccn12 [Compound 37, (R)-(3-aminopiperidin-1-yl)(2-(1-(furan-3-ylmethyl)-1H-indol-2-yl)-3-methylimidazo[1,2-a]pyridin-7-yl)methanone]
25 | < 1000 | ≤ 1000 | Cc1csc(Cn2c(-c3nc4cc(C(=O)N5CCC[C@@H](N)C5)ccn4c3C)cc3ccccc32)n1 [Compound 41, (R)-(3-aminopiperidin-1-yl)(3-methyl-2-(1-((4-methylthiazol-2-yl)methyl)-1H-indol-2-yl)imidazo[1,2-a]pyridin-7-yl)methanone]
26 | < 1000 | ≤ 1000 | Cc1c(-c2cc3cccc(Cl)c3n2CC2CC2)nc2cc(C(=O)N3CCC[C@@H](N)C3)ccn12 [Compound 44, (R)-(3-aminopiperidin-1-yl)(2-(7-chloro-1-(cyclopropylmethyl)-1H-indol-2-yl)-3-methylimidazo[1,2-a]pyridin-7-yl)methanone]
27 | < 1000 | ≤ 1000 | Cc1c(-c2cc3ccccc3n2Cc2ccc(F)cc2)nc2cc(C(=S)N3CCC[C@@H](N)C3)ccn12 [Compound 45, (R)-(3-aminopiperidin-1-yl)(2-(1-(4-fluorobenzyl)-1H-indol-2-yl)-3-methylimidazo[1,2-a]pyridin-7-yl)methanethione]
28 | < 1000 | ≤ 1000 | COc1cccc2cc(-c3nc4cc(C(=O)N5CCC[C@@H](N)C5)ccn4c3C)n(CC3CC3)c12 [Compound 47, (R)-(3-aminopiperidin-1-yl)(2-(1-(cyclopropylmethyl)-7-methoxy-1H-indol-2-yl)-3-methylimidazo[1,2-a]pyridin-7-yl)methanone]
29 | < 1000 | ≤ 1000 | Cc1ncc(Cn2c(-c3nc4cc(C(=O)N5CCC[C@@H](N)C5)ccn4c3C)cc3ccccc32)s1 [Compound 49, (R)-(3-aminopiperidin-1-yl)(3-methyl-2-(1-((2-methylthiazol-5-yl)methyl)-1H-indol-2-yl)imidazo[1,2-a]pyridin-7-yl)methanone]
30 | < 1000 |  | COc1ccc2cc(-c3nc4cc(C(=O)N5CCC[C@@H](N)C5)ccn4c3C)n(Cc3cccnc3)c2c1 [Compound 51, (R)-(3-aminopiperidin-1-yl) (2-(6-methoxy-1-(pyridin-3-ylmethyl)-1H-indol-2-yl)-3-methylimidazo[1,2-a]pyridin-7-yl)methanone]
31 | < 1000 |  | COc1cccc(Cn2c(-c3nc4cc(C(=O)N5CCC[C@@H](N)C5)ccn4c3C)cc3cc(F)ccc32)c1 [Compound 53, (R)-(3-aminopiperidin-1-yl)(2-(5-fluoro-1-(3-methoxybenzyl)-1H-indol-2-yl)-3-methylimidazo[1,2-a]pyridin-7-yl)methanone]
